Experimental data: patent publication US20130252890A1, “6,7-DIHYDRO-5H-BENZO[7]ANNULENE DERIVATIVES, PROCESS FOR PREPARATION THEREOF, PHARMACEUTICAL PREPARATIONS COMPRISING THEM, AND THE USE THEREOF FOR PRODUCTION OF MEDICAMENTS” (BAYER INTELLECTUAL PROPERTY GMBH, priority 2010, published 2013)

The molecules below were run against T1, oestrogen receptor (ER) (Homo sapiens, UniProt P03372) (assay: Anti-oestrogenic action in MVLN cells (inhibition of estradiol-induced luciferase)). Conditions: inhibition of estradiol-induced luciferase signal, value of Ex. 44 is a mean value, read-out: Antioestrogenic action in vitro: MVLN transactivation antagonism IC50.
T1 construct: These MVLN cells express, along with the functional oestrogen receptor (ER), a reporter construct; endogenous in cells; host or cells: MVLN cells (MCF7 derivative carrying a luciferase reporter construct)
T1 sequence (P03372 1-595): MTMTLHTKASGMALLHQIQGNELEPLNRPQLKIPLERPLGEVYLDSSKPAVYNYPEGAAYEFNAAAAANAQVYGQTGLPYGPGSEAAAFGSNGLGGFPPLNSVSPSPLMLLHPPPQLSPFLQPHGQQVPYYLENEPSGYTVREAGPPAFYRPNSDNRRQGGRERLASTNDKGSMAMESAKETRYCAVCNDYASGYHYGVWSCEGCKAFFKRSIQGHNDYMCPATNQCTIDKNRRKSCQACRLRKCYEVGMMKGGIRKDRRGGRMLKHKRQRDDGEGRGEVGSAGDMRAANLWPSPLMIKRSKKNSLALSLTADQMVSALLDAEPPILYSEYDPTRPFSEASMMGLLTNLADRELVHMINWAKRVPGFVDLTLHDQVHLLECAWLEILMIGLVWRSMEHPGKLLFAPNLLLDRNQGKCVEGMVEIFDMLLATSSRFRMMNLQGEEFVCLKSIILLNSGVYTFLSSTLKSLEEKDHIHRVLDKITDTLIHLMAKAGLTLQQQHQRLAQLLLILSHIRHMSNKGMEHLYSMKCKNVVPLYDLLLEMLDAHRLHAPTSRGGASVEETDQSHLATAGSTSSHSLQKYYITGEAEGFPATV
Format: cell-based
Source text: The anti-oestrogenic action of the claimed pharmacological compounds was investigated in so-called MVLN cells in vitro. MVLN cells are derivatives of the hormone-responsive MCF7 breast cancer cells known by a person skilled in the art. These MVLN cells express, along with the functional oestrogen receptor (ER), a reporter construct, which under ER-activation expresses luciferase. Determination of the activity of the induced luciferase permits a direct conclusion on the oestrogen properties of substances. To investigate the anti-oestrogenic properties of the pharmacological compounds, they were investigated in the presence of oestrogen for their potential for inhibiting the luciferase signal induced by estradiol. The claimed pharmacological test substances were investigated in MVLN cells for their anti-oestrogenic potential, as described (see Table 2).

Row | SMILES | IC50 [nM]
1 | CN(CCCCCCC1=C(c2ccc(F)c(F)c2)CCCc2cc(O)ccc21)CCCS(=O)(=O)CCCCC(F)(F)F [Example 73, 8-(3,4-Difluorophenyl)-9-[6-(methyl{3-[(5,5,5-trifluoropentyl)sulphonyl]propyl}amino)hexyl]-6,7-dihydro-5H-benzo[7]annulen-3-ol] | 18
2 | O=S(=O)(CCCN(CCO)CCCCCCC1=C(c2ccc(F)cc2)CCCc2cc(O)ccc21)CCC(F)(F)F [Example 56, 8-(4-Fluorophenyl)-9-{6-[(2-hydroxyethyl){3-[(3,3,3-trifluoropropyl)sulphonyl]propyl}amino]hexyl}-6,7-dihydro-5H-benzo[7]annulen-3-ol] | 29
3 | O=C(O)CN(CCCCCCC1=C(c2ccc(F)cc2)CCCc2cc(O)ccc21)CCCCS(=O)(=O)CCCC(F)(F)F [Example 94, N-{6-[8-(4-Fluorophenyl)-3-hydroxy-6,7-dihydro-5H-benzo[7]annulen-9-yl]hexyl}-N-{4-[(4,4,4-trifluorobutyl)sulphonyl]butyl}glycine] | 21
4 | [2H]C([2H])([2H])N(CCCCCCC1=C(c2cc(F)ccc2F)CCCc2cc(O)ccc21)CCCS(=O)(=O)CCCCC(F)(F)F [Example 137, 8-(2,5-Difluorophenyl)-9-{6-[(^2H3)methyl{3-[(5,5,5-trifluoropentyl)sulphonyl]propyl}amino]hexyl}-6,7-dihydro-5H-benzo[7]annulen-3-ol] | 6
5 | CN(CCCCCCC1=C(c2ccc(F)cc2)CCCc2cc(O)ccc21)CCCS(=O)(=O)CCC(F)(C(F)(F)F)C(F)(F)F [Example 110, 8-(4-Fluorophenyl)-9-{6-[methyl(3-{[3,4,4,4-tetrafluoro-3-(trifluoromethyl)butyl]sulphonyl}propyl)amino]hexyl}-6,7-dihydro-5H-benzo[7]annulen-3-ol] | 73
6 | CN(CCCCCCC1=C(c2ccc(F)cc2)CCCc2c1ccc(O)c2F)CCCSCCCC(F)(F)C(F)(F)F [Example 86, 4-Fluoro-8-(4-fluorophenyl)-9-[6-(methyl{3-[(4,4,5,5,5-pentafluoropentyl)sulphanyl]propyl}amino)hexyl]-6,7-dihydro-5H-benzo[7]annulen-3-ol] | 25
7 | CN(CCCCCCC1=C(c2ccc(F)cc2F)CCCc2cc(O)ccc21)CCCS(=O)(=O)CCC(F)(F)F [Example 130, 8-(2,4-Difluorophenyl)-9-[6-(methyl{3-[(3,3,3-trifluoropropyl)sulphonyl]propyl}amino)hexyl]-6,7-dihydro-5H-benzo[7]annulen-3-ol] | 16
8 | CN(CCCCCCC1=C(c2ccccc2F)CCCc2cc(O)ccc21)CCCS(=O)(=O)CCCC(F)(F)C(F)(F)F [Example 126] | 9
9 | COCCCN(CCCCCCC1=C(c2ccc(F)c(F)c2)CCCc2cc(O)ccc21)CCCS(=O)(=O)CCCC(F)(F)C(F)(F)F [Example 32, 8-(3,4-Difluorophenyl)-9-{6-[(3-methoxypropyl){3-[(4,4,5,5,5-pentafluoropentyl)sulphonyl]propyl}amino]hexyl}-6,7-dihydro-5H-benzo[7]annulen-3-ol] | 33
10 | CN(CCCCCCC1=C(c2ccc(F)cc2)CCCc2cc(O)c(F)cc21)CCCCCS(=O)(=O)CCC(F)(F)F [Example 107, 2-Fluoro-8-(4-fluorophenyl)-9-[6-(methyl{5-[(3,3,3-trifluoropropyl)sulphonyl]pentyl}amino)hexyl]-6,7-dihydro-5H-benzo[7]annulen-3-ol] | 123
11 | O=S(=O)(CCCCNCCCCCCC1=C(c2ccc(F)cc2)CCCc2cc(O)ccc21)CCCC(F)(F)F [Example 77, 8-(4-Fluorophenyl)-9-[6-({4-[(4,4,4-trifluorobutyl)sulphonyl]butyl}amino)hexyl]-6,7-dihydro-5H-benzo[7]annulen-3-ol] | 10
12 | O=S(=O)(CCCN(CCO)CCCCCCC1=C(c2ccc(F)cc2)CCCc2cc(O)c(F)cc21)CCCC(F)(F)C(F)(F)F [Example 100, 2-Fluoro-8-(4-fluorophenyl)-9-{6-[(2-hydroxyethyl){3-[(4,4,5,5,5-pentafluoropentyl)sulphonyl]propyl}amino]hexyl}-6,7-dihydro-5H-benzo[7]annulen-3-ol] | 9
13 | O=S(=O)(CCCCN(CCO)CCCCCCC1=C(c2ccc(F)cc2)CCCc2cc(O)ccc21)CCCC(F)(F)F [Example 92, 8-(4-Fluorophenyl)-9-{6-[(2-hydroxyethyl){4-[(4,4,4-trifluorobutyl)sulphonyl]butyl}amino]hexyl}-6,7-dihydro-5H-benzo[7]annulen-3-ol] | 5
14 | CC(C)(O)CN(CCCCCCC1=C(c2cc(F)cc(F)c2)CCCc2cc(O)ccc21)CCCS(=O)(=O)CCCC(F)(F)C(F)(F)F [Example 13, 8-(3,5-Difluorophenyl)-9-{6-[(2-hydroxy-2-methylpropyl){3-[(4,4,5,5,5-pentafluoropentyl)sulphonyl]propyl}amino]hexyl}-6,7-dihydro-5H-benzo[7]annulen-3-ol] | 20
15 | CC(C)(O)CN(CCCCCCC1=C(c2cc(F)cc(F)c2)CCCc2cc(O)ccc21)CCCS(=O)(=O)CCC(F)(F)F [Example 11, 8-(3,5-Difluorophenyl)-9-{6-[(2-hydroxy-2-methylpropyl){3-[(3,3,3-trifluoropropyl)sulphonyl]propyl}amino]hexyl}-6,7-dihydro-5H-benzo[7]annulen-3-ol] | 84
16 | CN(CCCCCCC1=C(c2cc(F)cc(F)c2)CCCc2cc(O)ccc21)CCC[S+]([O-])CCC(F)(F)C(F)(F)F (stereo not drawn) [Example 2, 8-(3,5-Difluorophenyl)-9-[6-(methyl{3-[(3,3,4,4,4-pentafluorobutyl)sulphinyl]propyl}amino)hexyl]-6,7-dihydro-5H-benzo[7]annulen-3-ol] | 8
17 | O=S(=O)(CCCN(CCCCCCC1=C(c2ccc(F)cc2)CCCc2c1ccc(O)c2F)Cc1ccc(F)cc1)CCCC(F)(F)C(F)(F)F [Example 65, 4-Fluoro-9-{6-[(4-fluorobenzyl){3-[(4,4,5,5,5-pentafluoropentyl)sulphonyl]propyl}amino]hexyl}-8-(4-fluorophenyl)-6,7-dihydro-5H-benzo[7]annulen-3-ol] | 116
18 | CCN(CCCCCCC1=C(c2ccc(F)c(F)c2)CCCc2cc(O)ccc21)CCCS(=O)(=O)CCC(F)(F)F [Example 30, 8-(3,4-Difluorophenyl)-9-[6-(ethyl{3-[(3,3,3-trifluoropropyl)sulphonyl]propyl}amino)hexyl]-6,7-dihydro-5H-benzo[7]annulen-3-ol] | 88
19 | CC(C)(O)CN(CCCCCCC1=C(c2cc(F)cc(F)c2)CCCc2cc(O)ccc21)CCC[S+]([O-])CCCC(F)(F)C(F)(F)F (stereo not drawn) [Example 12, 8-(3,5-Difluorophenyl)-9-{6-[(2-hydroxy-2-methylpropyl){3-[(4,4,5,5,5-pentafluoropentyl)sulphinyl]propyl}amino]hexyl}-6,7-dihydro-5H-benzo[7]annulen-3-ol] | 15
20 | CN(CCCCCCC1=C(c2cc(F)ccc2F)CCCc2cc(O)ccc21)CCCCS(=O)(=O)CCCC(F)(F)F [Example 143, 8-(2,5-Difluorophenyl)-9-[6-(methyl{4-[(4,4,4-trifluorobutyl)sulphonyl]butyl}amino)hexyl]-6,7-dihydro-5H-benzo[7]annulen-3-ol] | 9
21 | CN(CCCCCCC1=C(c2ccc(F)c(F)c2)CCCc2cc(O)ccc21)CCCS(=O)(=O)CCC(F)(F)F [Example 22, 8-(3,4-Difluorophenyl)-9-[6-(methyl{3-[(3,3,3-trifluoropropyl)sulphonyl]propyl}amino)hexyl]-6,7-dihydro-5H-benzo[7]annulen-3-ol] | 222
